From the NIST ThermoML archive (doi:10.1021/je600554h)
± gives the expanded uncertainty stated by the source.

Conditions: 101.33 kPa, Liquid; for viscosity: Capillary tube (Ostwald / Ubbelohde) method

COC(C)(C)C [2-methoxy-2-methylpropane]
Conditions	mass density [kg/m3]	viscosity [mPa·s]
273.15 K	761.34 ± 0.25	0.443 ± 0.009
278.15 K	756.14 ± 0.26	0.417 ± 0.009
283.15 K	751.02 ± 0.26	0.392 ± 0.008
288.15 K	745.85 ± 0.27	0.37 ± 0.008
293.15 K	740.65 ± 0.27	–
298.15 K	735.4 ± 0.27	–
303.15 K	730.1 ± 0.28	–
308.15 K	724.82 ± 0.28	–
313.15 K	719.42 ± 0.29	–
318.15 K	713.96 ± 0.29	–

CCCCCCC [heptane]
Conditions	mass density [kg/m3]	viscosity [mPa·s]
273.15 K	700.75 ± 0.62	0.526 ± 0.009
278.15 K	696.59 ± 0.62	0.495 ± 0.009
283.15 K	692.42 ± 0.63	0.465 ± 0.009
288.15 K	688.22 ± 0.64	0.438 ± 0.009
293.15 K	684 ± 0.64	0.415 ± 0.009
298.15 K	679.75 ± 0.65	0.392 ± 0.009
303.15 K	675.48 ± 0.66	0.372 ± 0.008
308.15 K	671.19 ± 0.66	0.354 ± 0.008
313.15 K	666.86 ± 0.67	0.336 ± 0.008
318.15 K	662.5 ± 0.68	–
323.15 K	658.11 ± 0.68	–
328.15 K	653.68 ± 0.69	–
333.15 K	649.22 ± 0.7	–
338.15 K	644.72 ± 0.71	–
343.15 K	640.17 ± 0.71	–
348.15 K	635.58 ± 0.72	–
353.15 K	630.41 ± 0.73	–
358.15 K	626.34 ± 0.74	–

CCCCCCCC [octane]
Conditions	mass density [kg/m3]	viscosity [mPa·s]
273.15 K	718.58 ± 0.6	0.718 ± 0.009
278.15 K	714.61 ± 0.61	0.671 ± 0.009
283.15 K	710.62 ± 0.62	0.623 ± 0.009
288.15 K	706.62 ± 0.62	0.584 ± 0.009
293.15 K	702.61 ± 0.63	0.545 ± 0.009
298.15 K	698.57 ± 0.64	0.514 ± 0.009
303.15 K	694.52 ± 0.64	0.486 ± 0.009
308.15 K	690.44 ± 0.65	0.459 ± 0.009
313.15 K	686.35 ± 0.65	0.434 ± 0.009
318.15 K	682.23 ± 0.66	0.415 ± 0.009
323.15 K	678.09 ± 0.67	0.394 ± 0.009
328.15 K	673.92 ± 0.67	0.375 ± 0.009
333.15 K	669.71 ± 0.68	0.357 ± 0.008
338.15 K	665.51 ± 0.69	–
343.15 K	661.24 ± 0.69	–
348.15 K	656.96 ± 0.7	–
353.15 K	652.63 ± 0.71	–
358.15 K	648.26 ± 0.72	–
363.15 K	643.85 ± 0.72	–
